Here are results for eleven molecules from ChEMBL document CHEMBL1201862, “PubChem BioAssay data set” (2004).

Holding throughout (assay): growth of human tumour cells (NCI), 48 h
In assay [1] the test system is SN12C.
Assay [2] has as its system SF-539.
Assay [3] has as its system UACC-257.
Assay [4] relates to EKVX.
The test system of assay [5] is MOLT-4.
Assay [6] concerns CCRF-CEM.
For assay [7], the system named is SK-MEL-5.
In assay [8] the test system is HT-29.
Assay [9] has as its system NCI-H522.
Assay [10] has as its system RXF 393.
The subject of assay [11] is MCF7.
Assay [12] relates to HCC 2998.
Assay [13] concerns T47D.
The test system of assay [14] is NCI-H23.
For assay [15], the system named is BT-549.
For assay [16], the system named is SNB-19.
Assay [17] concerns MDA-N.
For assay [18], the system named is 786-0.
Assay [19] deals with PC-3.
In assay [20] the test system is OVCAR-3.

Each structure is given as a SMILES string.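 Where inhibition never reached the appropriate level, the endpoint shown equals the highest concentration tested. Otherwise, values were interpolated linearly from a five-concentration, 48-hour dose response in 96-well plates. GI50: concentration for 50% inhibition of growth.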 Active and inactive are the calls of the source. Rule as the data show it: active = GI50 up to about 1.1 µM and inactive = higher.

On to `O=C1C=C(C2=C(C3=CC(=O)c4ccccc4C3=O)C(=O)c3ccccc3C2=O)C(=O)c2ccccc21`, for which the GI50 in assay [1] was 7.26 µM (inactive); in assay [2], 8.28 µM (inactive); in assay [3], 10.5 µM (inactive); in assay [4], 11.1 µM (inactive); in assay [5], 0.389 µM (active); in assay [6], 0.286 µM (active). Moreover, the GI50 in assay [7] was 9.4 µM (inactive); in assay [8], 3.12 µM (inactive); in assay [9], 2.17 µM (inactive); in [10], 1.69 µM (inactive); in [11], 7.69 µM (inactive); in assay [12] it was 16.9 µM (inactive). Also, the GI50 was 6.19 µM (inactive) in assay [13]; 7.43 µM (inactive) in assay [14]; 14.6 µM (inactive) in [15]; 14.4 µM (inactive) in [16]; 2.25 µM (inactive) in assay [17]; 2.9 µM (inactive) in assay [18]. Moreover, the GI50 in assay [19] is 10.4 µM (inactive); in assay [20], 2.84 µM (inactive).

As to `CCOc1cc2c(cc1O)C=C[C@@H]1[C@@H]2CC[C@]2(C)[C@@H](O)CC[C@@H]12`, the GI50 in assay [1] is 4.52 µM (inactive); in assay [2], 2.04 µM (inactive); in assay [3], 12.5 µM (inactive); in [4], 4.79 µM (inactive); in assay [5], 2.91 µM (inactive); in assay [6], 3.15 µM (inactive). The GI50 is 1.97 µM (inactive) in [7]; 10 µM (inactive) in assay [8]; 1.77 µM (inactive) in assay [9]; 7.29 µM (inactive) in assay [10]; 3.61 µM (inactive) in assay [11]; 6.34 µM (inactive) in [12]. Further, the GI50 in assay [13] was 6.01 µM (inactive); in assay [14], 3.85 µM (inactive); in assay [15] it was 13.9 µM (inactive); in assay [16], 3.52 µM (inactive); in assay [17] it was 0.33 µM (active); in [18], 4.35 µM (inactive). Also, the GI50 in [19] was 3.64 µM (inactive); in assay [20] it was 1.87 µM (inactive).

Consider `COC(=O)C1=NN2c3ccccc3C(=O)OCCC2C1` (stereo unspecified), for which the GI50 in assay [1], in assay [2], in assay [3], in [4], in assay [5] and in assay [6] was > 100 µM (inactive) throughout. Also, the GI50 in assay [7], in assay [8], in [9], in [10], in [11] and in assay [12] was > 100 µM (inactive) each time. Moreover, the GI50 in [13], in assay [14], in [15], in [17], in [18] and in [19] was > 100 µM (inactive) in each case. Moreover, the GI50 in [20] is > 100 µM (inactive).

For the molecule `O=C(/C=C/c1ccc(C(F)(F)F)cc1)c1c([O-])on[n+]1-c1ccccc1`, the GI50 in assay [1] is 2.23 µM (inactive); in [2] it was 2.03 µM (inactive); in assay [3], 2.12 µM (inactive); in [4], 2.24 µM (inactive); in assay [5] it was 0.284 µM (active); in [6], 0.108 µM (active). For the same molecule, the GI50 was 2.8 µM (inactive) in [7]; 0.889 µM (active) in assay [8]; 1.27 µM (inactive) in assay [10]; 1.15 µM (inactive) in [11]; 1.98 µM (inactive) in assay [12]; 1.8 µM (inactive) in [13]. The GI50 in [14] is 3.13 µM (inactive); in assay [15], 1.59 µM (inactive); in assay [16], 3.12 µM (inactive); in assay [17], 1.84 µM (inactive); in assay [18], 0.531 µM (active); in assay [19], 3.19 µM (inactive). Also, in assay [20], the GI50 is 1.58 µM (inactive).

With `CCOC(=O)c1c2ccccc2n2c(=O)n(-c3ccc(OC)cc3)nnc12`, the GI50 in assay [1] is > 83.8 µM (inactive); in [2], 19.5 µM (inactive); in assay [3] it was 60.5 µM (inactive); in [4] it was 32.1 µM (inactive); in assay [7] it was 58.5 µM (inactive); in assay [10], 19 µM (inactive). For the same molecule, the GI50 in assay [11] was 0.555 µM (active); in assay [12], > 100 µM (inactive); in [13] it was 24.3 µM (inactive); in [14], 34.4 µM (inactive); in assay [15], 26.5 µM (inactive); in assay [16], 34.2 µM (inactive). Moreover, the GI50 in assay [17] is > 100 µM (inactive); in assay [18], 17 µM (inactive); in [19], 18.2 µM (inactive); in [20], 34.4 µM (inactive).

Consider `Nc1ncc2c(n1)-c1ccccc1OC2N1CCCCC1` (stereo unspecified), for which the GI50 was > 100 µM (inactive) in assay [1]; > 100 µM (inactive) in assay [2]; > 100 µM (inactive) in assay [3]; 95.1 µM (inactive) in assay [4]; > 100 µM (inactive) in assay [5]; > 100 µM (inactive) in assay [6]. Moreover, the GI50 in assay [7], in assay [8], in assay [9], in [10], in [11] and in [13] was > 100 µM (inactive) throughout. Also, the GI50 in assay [14], in assay [15], in assay [16], in [17], in assay [18] and in assay [19] was > 100 µM (inactive) each time. Moreover, the GI50 in [20] is > 100 µM (inactive).

As to `COC(=O)C(=O)C(C(=O)C(=O)Nc1ccc(Cl)c(Cl)c1)c1nc2ccc(C(=O)c3ccccc3)cc2nc1O` (stereo unspecified), the GI50 was > 100 µM (inactive) in [1]; 62.2 µM (inactive) in assay [2]; > 100 µM (inactive) in [3]; 44.9 µM (inactive) in [4]; 15 µM (inactive) in [5]; 46.6 µM (inactive) in assay [6]. Moreover, the GI50 is > 100 µM (inactive) in assay [7]; 44.2 µM (inactive) in assay [8]; 27.7 µM (inactive) in [9]; 38.4 µM (inactive) in assay [10]; 35.2 µM (inactive) in [11]; 49 µM (inactive) in assay [13]. The GI50 is 47.6 µM (inactive) in [14]; > 100 µM (inactive) in [15]; 45.6 µM (inactive) in [16]; 42.9 µM (inactive) in assay [17]; > 100 µM (inactive) in [18]; 38.1 µM (inactive) in assay [19]. The GI50 in assay [20] was 86.7 µM (inactive).

As to `N#CC1C(=S)NC(c2ccccc2)=CC12CCCCC2` (stereo unspecified), the GI50 in [1] was 35 µM (inactive); in assay [2], 43 µM (inactive); in [3] it was 64.7 µM (inactive); in [4], 17.8 µM (inactive); in assay [5], 20.7 µM (inactive); in assay [6], 25.5 µM (inactive). The GI50 was 25.1 µM (inactive) in assay [7]; 27.6 µM (inactive) in assay [8]; 22.1 µM (inactive) in assay [9]; 87.1 µM (inactive) in assay [10]; 21.9 µM (inactive) in [11]; > 100 µM (inactive) in [12]. For the same molecule, the GI50 in [13] was 10.8 µM (inactive); in [14], 15.7 µM (inactive); in assay [15], 15.8 µM (inactive); in assay [16], 32.5 µM (inactive); in assay [17] it was 31.5 µM (inactive); in [18], 35 µM (inactive). Moreover, in assay [19], the GI50 is 38 µM (inactive).

On to `Nc1nc(N)c2cc(-c3cc4ccccc4[nH]3)ccc2n1`, for which the GI50 is 33 µM (inactive) in assay [1]; 19.5 µM (inactive) in assay [2]; 16.2 µM (inactive) in assay [3]; 29 µM (inactive) in assay [4]; 26.5 µM (inactive) in assay [5]; 35.2 µM (inactive) in [6]. For the same molecule, the GI50 was 15.2 µM (inactive) in assay [7]; 15.5 µM (inactive) in [8]; 17.5 µM (inactive) in assay [9]; 24.8 µM (inactive) in assay [10]; 18.1 µM (inactive) in [11]; 3.48 µM (inactive) in assay [13]. The GI50 was 27.5 µM (inactive) in assay [14]; 23 µM (inactive) in assay [15]; 33 µM (inactive) in assay [16]; 19.8 µM (inactive) in [17]; 22.5 µM (inactive) in [18]; 26.2 µM (inactive) in assay [19]. Also, the GI50 in assay [20] is 35.6 µM (inactive).

With `NC1Cc2ccccc2OC1=O` (stereo unspecified), the GI50 in assay [1], in assay [2], in assay [3], in assay [4], in [5] and in assay [7] was > 100 µM (inactive) each time. The GI50 in assay [8], in assay [9], in assay [10], in [11], in assay [12] and in assay [13] was > 100 µM (inactive) each time. Besides, the GI50 in assay [14] was > 100 µM (inactive); in assay [15], > 100 µM (inactive); in assay [16] it was > 100 µM (inactive); in [17], > 10 µM (inactive); in assay [18], > 100 µM (inactive); in assay [19], > 100 µM (inactive). Moreover, the GI50 in assay [20] is > 100 µM (inactive).

As for `NC(=S)NC/C=C/Cl`, the GI50 in [3], in assay [4], in assay [5], in assay [6], in [7] and in [8] was > 100 µM (inactive) each time. The GI50 in assay [9] was 86.5 µM (inactive); in assay [10] it was > 100 µM (inactive); in [11], > 100 µM (inactive); in assay [13], > 100 µM (inactive); in [14] it was > 100 µM (inactive); in assay [15] it was > 100 µM (inactive). The GI50 in [16], in [17], in [18], in assay [19] and in assay [20] was > 100 µM (inactive) in each case.
